Measured values as given in publication PMC2783333 (Nature chemical biology, 2009).
Read-outs that look alike come from different tables or passages of the source.

What was measured:
MARTXVc CPD [1] = conditions: cited from earlier work
[2] = tested on: P. luminescens TTO1 MARTX CPDs (Plu3217, Plu3324, Plu1341, Plu1344); format: biochemical, Photorhabdus luminescens
MARTXVc CPD [3] = format: biochemical, Vibrio cholerae; conditions: read-out: AC50 (InsP6 for 50% cleavage)
[4] = molecular target: V. vulnificus CMCP6 VV20479 MARTX CPD (Vibrio vulnificus, UniProt A0A2S3R7M0); format: biochemical; conditions: 10 µM InsP6

Structure (SMILES)	potency as activator of the CPD (MARTXVc CPD [1])	AC50 (MARTXVc CPD [1]; read-out: AC50 (InsP6 for half-maximal autocleavage))	InsP6-dependent autoprocessing [2]	AC50 (MARTXVc CPD [3])	InsP6-dependent autoprocessing [4]
Nc1nc2c(ncn2[C@@H]2O[C@H](COP(=O)(O)OP(=O)(O)OP(O)(O)=S)[C@@H](O)[C@H]2O)c(=O)[nH]1 [GTPγS, guanosine 5′-[γ-thio]triphosphate]	much less potent activator				
O=P(O)(O)OC1C(OP(=O)(O)O)C(OP(=O)(O)O)C(OP(=O)(O)O)C(OP(=O)(O)O)C1OP(=O)(O)O (centres unmarked) [InsP6, inositol hexakisphosphate]		910 ± 100 pM	underwent InsP6-dependent autoprocessing	760 ± 270 pM	underwent InsP6-dependent autoprocessing
